Data as given in patent publication US10913765B2, “Liver specific delivery-based gemcitabine prodrug nucleoside cyclic phosphate compound, and application thereof” (ZHEJIANG PALO ALTO PHARMACEUTICALS, INC., priority 2017, dated 2021).

conditions: human, 5 min, 25 μM, pH 7.4
Description: Human liver microsomes (HLM) were purchased from IVT (In Vitro Technologies), lot number SSP, article number X008070.
Enzymatic reaction was carried out in 100 mM KH2PO4 buffer solution (pH 7.4), the concentration of the test compounds was 25 M, the concentration of human liver microsomes was 2 mg/ml, and NADPH concentration was 2 mM. The reaction was initiated by NADPH finally added, and after reaction for 5 min in a constant-temperature shaking water bath kettle, 1.5 times of volume of methanol containing internal standard (PMPA) was immediately added to terminate the reaction.
(§1) Centrifugation was carried out for 20 minutes at a maximum speed of 13,600 rpm using an Eppendorf tabletop centrifuge. Supernatant was taken, and after being blow-dried by a nitrogen blower, the supernatant was re-dissolved into a mobile phase A (0.1% formic acid v/v aqueous solution).
(§2) Analytical column: Waters, Acquity UPLC HSS T3 column
Column temperature: 40° C.
(§3) Ion source: electrospray ionization source
Ion mode: positive ion mode
Capillary voltage: 3.0 kV
Desolventizing airflow speed: 100 L/h

Row | Conversion rate to dFdCMP relative to that of PA4001 [times] | Conversion rate to dFdCMP relative to that of PA4003 | SMILES
1 | 1.0 | about 7.3 times | Nc1ccn([C@@H]2O[C@H](COP3(=O)OCC[C@H](c4cc(F)cc(Cl)c4)O3)[C@@H](O)C2(F)F)c(=O)n1 (stereo partly drawn) [PA4002]
2 | 1.3 | ~9.5 times | Nc1ccn([C@@H]2O[C@H](COP3(=O)OCC[C@H](c4cc(Cl)ccc4F)O3)[C@@H](O)C2(F)F)c(=O)n1 (stereo partly drawn) [PA4004]

conditions: human, 5 min, 25 μM, pH 7.4; remark: another data set of the same source
Description: Human liver microsomes (HLM) were purchased from IVT (In Vitro Technologies), article number X008070, lot number IQF.
Enzymatic reaction was carried out in 100 mM KH2PO4 buffer solution (pH 7.4), the concentration of the test compounds was 25 μM, the concentration of human liver microsomes was 2 mg/ml, and NADPH concentration was 2 mM. The reaction was initiated by NADPH finally added, and after reaction for 5 min in a constant-temperature shaking water bath kettle, 1.5 times of volume of methanol containing internal standard (PMPA) was immediately added to terminate the reaction.
as §1, §2
Column temperature: 40° C.
as §3
Ion mode: positive ion mode
Capillary voltage: 3.0 kV
Desolventizing airflow speed: 100 L/h

Row | SMILES | Activation Rate (rate of releasing monophosphate product dFdCMP) [pmol/min/mg HLM] | Conversion rate to dFdCMP relative to that of PA4004
3 | Nc1ccn([C@@H]2O[C@H](COP3(=O)OCC[C@H](c4cc(Cl)ccc4F)O3)[C@@H](O)C2(F)F)c(=O)n1 (stereo partly drawn) [PA4004] | 10.98 ± 1.23 | –
4 | Nc1ccn([C@@H]2O[C@H](COP3(=O)OCC[C@H](c4cc(Cl)cc(Cl)c4)O3)[C@@H](O)C2(F)F)c(=O)n1 (stereo partly drawn) [PA4006] | 6.92 ± 0.01 | –
5 | Nc1ccn([C@@H]2O[C@H](COP3(=O)OCC[C@H](c4ccc(F)c(Cl)c4)O3)[C@@H](O)C2(F)F)c(=O)n1 (stereo partly drawn) [PA4008] | 5.45 ± 0.12 | –
6 | Nc1ccn([C@@H]2O[C@H](COP3(=O)OCC[C@H](c4ccc(Cl)c(F)c4)O3)[C@@H](O)C2(F)F)c(=O)n1 (stereo partly drawn) [PA4009] | 10.45 ± 0.85 | –

The next lines start with the values.

Row | Activation Rate (rate of releasing monophosphate product dFdCMP) [pmol/min/mg HLM] | Conversion rate to dFdCMP relative to that of PA4004 | SMILES
7 | 9.56 ± 0.07 | – | Nc1ccn([C@@H]2O[C@H](COP3(=O)OCC[C@H](c4cccc(Cl)c4F)O3)[C@@H](O)C2(F)F)c(=O)n1 (stereo partly drawn) [PA4010]
8 | 35.28 ± 0.81 | ~3.2 times | Nc1ccn([C@@H]2O[C@H](COP3(=O)OCC[C@H](c4cc(F)ccc4Cl)O3)[C@@H](O)C2(F)F)c(=O)n1 (stereo partly drawn) [PA4011]
9 | 38.95 ± 1.17 | about 3.5 times | Nc1ccn([C@@H]2O[C@H](COP3(=O)OCC[C@H](c4cc(Cl)ccc4Cl)O3)[C@@H](O)C2(F)F)c(=O)n1 (stereo partly drawn) [PA4012]
10 | 7.23 ± 0.53 | – | Nc1ccn([C@@H]2O[C@H](COP3(=O)OCC[C@H](c4cc(F)ccc4F)O3)[C@@H](O)C2(F)F)c(=O)n1 (stereo partly drawn) [PA4013]
11 | 6.49 ± 0.19 | – | Nc1ccn([C@@H]2O[C@H](COP3(=O)OCC[C@H](c4cccc(F)c4F)O3)[C@@H](O)C2(F)F)c(=O)n1 (stereo partly drawn) [PA4014]
12 | 4.32 ± 0.76 | – | Nc1ccn([C@@H]2O[C@H](COP3(=O)OCC[C@H](c4ccc(F)c(F)c4)O3)[C@@H](O)C2(F)F)c(=O)n1 (stereo partly drawn) [PA4017]
13 | 7.62 ± 0.48 | – | Nc1ccn([C@@H]2O[C@H](COP3(=O)OCC[C@H](c4cccc(Cl)c4Cl)O3)[C@@H](O)C2(F)F)c(=O)n1 (stereo partly drawn) [PA4018]
14 | 5.25 ± 0.13 | – | Nc1ccn([C@@H]2O[C@H](COP3(=O)OCC[C@H](c4ccc(Cl)c(Cl)c4)O3)[C@@H](O)C2(F)F)c(=O)n1 (stereo partly drawn) [PA4021]
